# Experimental data: patent US10590153B2, “Process for producing crystalline DTPMP” (Zschimmer & Schwarz Mohsdorf GmbH & Co. KG, priority 2014, dated 2020)
# Tests used:
# [1] = about 55% humidity at 22° C.
# Description: In a further test, the influence of the degree of neutralisation of the phosphonic acid DTPMP on the hygroscopicity was studied, on account of its industrial relevance, especially the sodium salts. To that end, 10 g of sample were stored in four crystallisation dishes of equal size in a desiccator under constant humidity. Via a saturated magnesium nitrate solution with precipitate (about ⅓ precipitate in ⅔ of the solution), about 55% by weight humidity is established at 22° C. The water absorption of the samples was determined gravimetrically twice daily over a period of 22 days as the difference in mass (see FIG. 15).
# A crystallisate of the α crystal modification with a foreign acid content of 3.8% by weight chloride and in total 6.6% by weight H3PO4 and H3PO3 per 100% by mass DTPMP was dissolved again. Portions were neutralised with sodium hydroxide solution to pH (1% strength)=1.7 for the Na0.5-DTPMP salt, pH (1% strength)=2.1 for the Na3-DTPMP salt and pH (1% strength)=6.6 for the Na7-DTPMP salt.
# [2] = Bulk density of the samples used for the hygroscopicity test; assay type: physicochemical
# [3] = Determination of the hygroscopicity (gravimetric water absorption in desiccator at constant humidity); assay type: physicochemical; settings: 22±2° C., relative humidity of 55%; for Relative water absorption: determined daily over 12 days
# Description: In order to determine the hygroscopicity, solid samples were stored in 25 ml glass beakers in a desiccator under constant humidity. […] The water absorption of the samples was determined gravimetrically once daily over a period of 12 days as the difference in mass (see FIG. 14).
# Two spray-dried powders were tested as comparison with crystallisate samples of the crystallisates of the α, β and γ crystal modification.
# A DTPMP synthesis product having the quality parameters from Table 4 used as the starting slurry for the crystallisation was spray dried with a Büchi-Mini Spray Dryer B-290.
# [4] = Solubility of DTPMP at room temperature in dependence on the concentration of sodium ions and chloride ions; assay type: physicochemical; settings: chloride ions in the range of from 1 to 4% by mass, room temperature (FIG. 13)
# Description: FIG. 13: Solubility of DTPMP at room temperature in dependence on the concentration of sodium ions and chloride ions in % by mass.
SMILES,Appearance of the sample after 22 days [1],Bulk density [2],Relative water absorption [3],also measured
O=P([O-])([O-])CN(CCN(CCN(CP(=O)([O-])[O-])CP(=O)([O-])O)CP(=O)([O-])O)CP(=O)([O-])O.[Na+].[Na+].[Na+].[Na+].[Na+].[Na+].[Na+] [Na7 salt],liquefied,–,–,Appearance of the sample after half the test time ([1]; after only half the test time (of 22 days)): visibly contracting to form a block
"O=P(O)(O)CN(CCN(CP(=O)(O)O)CP(=O)(O)O)CCN(CP(=O)(O)O)CP(=O)(O)O [DTPMP acid, diethylenetriamine penta(methylenephosphonic acid)]",still recognisable,–,–,–
"O=P(O)(O)CN(CCN(CP(=O)(O)O)CP(=O)(O)O)CCN(CP(=O)(O)O)CP(=O)(O)O [DTPMP, diethylenetriamine penta(methylenephosphonic acid)]",–,–,–,Solubility of DTPMP (in words) [4]: further reduction in solubility

# More lines, main results first:
Appearance of the sample after 22 days [1],Bulk density [2],Relative water absorption [3],SMILES,also measured
–,0.36 g/mL,0.03 % by mass/day,"O=P(O)(O)CN(CCN(CP(=O)(O)O)CP(=O)(O)O)CCN(CP(=O)(O)O)CP(=O)(O)O [Crystal form α, purified quality, diethylenetriamine penta(methylenephosphonic acid)]",Hygroscopicity / water absorption capacity (in words) ([3]; listed as crystal modification α): consistently low water absorption
–,0.49 g/mL,0.04 % by mass/day,"O=P(O)(O)CN(CCN(CP(=O)(O)O)CP(=O)(O)O)CCN(CP(=O)(O)O)CP(=O)(O)O [Crystal form β, purified quality, diethylenetriamine penta(methylenephosphonic acid)]",Hygroscopicity / water absorption capacity (in words) ([3]; listed as crystal modification β): consistently low water absorption
